Values of other authors as cited in patent publication US11485742B2, “2-azaspiro[3.4]octane derivatives as M4 agonists” (NOVARTIS AG, priority 2019, dated 2022).

System: hyperactivity in mice induced by the stimulant d-amphetamine
Settings: general statement on clinically efficacious muscarinic anti-psychotics; cited from earlier work

For CCCCCCOc1nsnc1C1=CCCN(C)C1 [xanomeline], the “activity in the amphetamine induced hyperlocomotion assay” value is listed as “active”.
